Assay results taken from patent US20240215579A1, “USE OF ANTI-CLOTTING COMPOUNDS AS RODENTICIDES” (priority 2021, published 2024).

Tested on: pest rodents
Assay: Pest rodent bait compositions in standard chow: mortality
Assay type: in vivo, rats
From the text: The basic bait composition (standard chow) used consisted of 65% maize, 25% oat flakes, […], 3% refined finely granulated sugar, and 1% fine table salt.
The Pgp inhibitors were used at the following listed concentration.

SMILES: C[C@@H](c1ncncc1F)[C@](O)(Cn1cncn1)c1ccc(F)cc1F [voriconazole]
- Mortality in words, Pgp inhibitor combined with active clotting inhibitors (bait, combination with different active clotting inhibitors): high mortality
- Efficacy as Pgp inhibitor in the context of the invention (compared to other Pgp inhibiting substances): highly effective
